The record followed here is patent US20240246942A1, “KINASE INHIBITORS FOR THE TREATMENT OF NEURODEGENERATIVE DISEASES” (priority 2020, published 2024).

Common to all, as to test: biochemical
Test [1] concerns the target T1, panel of 374 wild-type kinases (Homo sapiens, UniProt P35968).
T1 construct: purchased Reaction Biology Corporation
The following applies: read-out: % Enzyme Activity (relative to DMSO controls), KDR/VEGFR2.

For test [2], the target named is T2, panel of 374 wild-type kinases (Homo sapiens, UniProt Q16644).
T2 construct: purchased Reaction Biology Corporation
Conditions: read-out: % Enzyme Activity (relative to DMSO controls), MAPKAPK3.

Test [3] has as its target T3, panel of 374 wild-type kinases (Homo sapiens, UniProt Q76MJ5).
T3 construct: purchased Reaction Biology Corporation
Conditions: read-out: % Enzyme Activity (relative to DMSO controls), ERN2/IRE2.

Test [4] deals with T4, panel of 374 wild-type kinases (Homo sapiens, UniProt P08922).
T4 construct: purchased Reaction Biology Corporation
The following applies: read-out: % Enzyme Activity (relative to DMSO controls), kinase ROS/ROS1.

The target of test [5] is T5, panel of 374 wild-type kinases (Homo sapiens, UniProt Q5VT25).
T5 construct: purchased Reaction Biology Corporation
Conditions: read-out: % Enzyme Activity (relative to DMSO controls), MRCKa/CDC42BPA.

The target of test [6] is T6, panel of 374 wild-type kinases (Homo sapiens, UniProt Q15139).
T6 construct: purchased Reaction Biology Corporation
T6 sequence (Q15139 1-912): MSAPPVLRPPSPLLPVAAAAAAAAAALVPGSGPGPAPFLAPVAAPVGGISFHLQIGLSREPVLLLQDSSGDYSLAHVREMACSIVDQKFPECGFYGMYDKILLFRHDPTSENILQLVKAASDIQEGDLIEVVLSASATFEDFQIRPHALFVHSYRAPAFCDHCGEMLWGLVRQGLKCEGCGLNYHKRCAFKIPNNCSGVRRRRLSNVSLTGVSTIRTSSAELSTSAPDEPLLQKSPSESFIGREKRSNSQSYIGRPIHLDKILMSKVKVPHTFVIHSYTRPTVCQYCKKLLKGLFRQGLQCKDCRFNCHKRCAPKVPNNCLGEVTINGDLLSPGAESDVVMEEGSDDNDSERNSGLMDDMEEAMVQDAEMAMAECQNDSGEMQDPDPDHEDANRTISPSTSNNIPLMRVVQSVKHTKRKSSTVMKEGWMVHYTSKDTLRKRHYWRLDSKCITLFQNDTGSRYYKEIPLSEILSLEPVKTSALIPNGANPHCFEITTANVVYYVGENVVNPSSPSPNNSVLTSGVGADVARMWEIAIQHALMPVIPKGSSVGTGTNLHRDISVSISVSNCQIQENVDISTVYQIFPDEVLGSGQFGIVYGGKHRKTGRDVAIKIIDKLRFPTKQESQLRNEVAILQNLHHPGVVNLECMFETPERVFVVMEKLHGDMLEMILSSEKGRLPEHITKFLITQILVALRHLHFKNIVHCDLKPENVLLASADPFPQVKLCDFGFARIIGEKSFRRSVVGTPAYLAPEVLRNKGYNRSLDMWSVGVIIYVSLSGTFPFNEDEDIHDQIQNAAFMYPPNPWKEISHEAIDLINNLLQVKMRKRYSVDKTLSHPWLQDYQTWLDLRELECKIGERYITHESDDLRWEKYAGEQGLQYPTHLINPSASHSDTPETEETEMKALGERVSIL
The following applies: read-out: % Enzyme Activity (relative to DMSO controls), kinase PKCmu/PRKD1.

For test [7], the target named is T7, panel of 374 wild-type kinases (Homo sapiens, UniProt P17612).
T7 construct: purchased Reaction Biology Corporation
Conditions: read-out: % Enzyme Activity (relative to DMSO controls), kinase PKA.

The target in test [8] is T8, panel of 374 wild-type kinases (Homo sapiens, UniProt Q13043).
T8 construct: purchased Reaction Biology Corporation
T8 sequence (Q13043 1-487): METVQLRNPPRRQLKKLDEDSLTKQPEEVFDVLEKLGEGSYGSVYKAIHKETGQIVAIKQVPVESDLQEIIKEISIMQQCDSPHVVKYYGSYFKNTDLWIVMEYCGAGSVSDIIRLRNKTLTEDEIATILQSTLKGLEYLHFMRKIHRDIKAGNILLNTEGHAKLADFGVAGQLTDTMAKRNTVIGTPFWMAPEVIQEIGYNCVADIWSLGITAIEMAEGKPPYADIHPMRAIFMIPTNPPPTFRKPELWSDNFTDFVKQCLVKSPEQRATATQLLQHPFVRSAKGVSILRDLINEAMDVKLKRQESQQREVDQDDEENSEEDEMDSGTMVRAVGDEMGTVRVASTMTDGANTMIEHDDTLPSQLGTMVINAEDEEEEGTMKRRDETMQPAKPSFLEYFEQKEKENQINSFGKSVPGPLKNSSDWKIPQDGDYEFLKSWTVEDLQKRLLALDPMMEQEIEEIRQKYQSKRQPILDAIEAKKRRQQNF
Conditions: read-out: % Enzyme Activity (relative to DMSO controls), MST1/STK4.

T2 sequence (Q16644 whole entry): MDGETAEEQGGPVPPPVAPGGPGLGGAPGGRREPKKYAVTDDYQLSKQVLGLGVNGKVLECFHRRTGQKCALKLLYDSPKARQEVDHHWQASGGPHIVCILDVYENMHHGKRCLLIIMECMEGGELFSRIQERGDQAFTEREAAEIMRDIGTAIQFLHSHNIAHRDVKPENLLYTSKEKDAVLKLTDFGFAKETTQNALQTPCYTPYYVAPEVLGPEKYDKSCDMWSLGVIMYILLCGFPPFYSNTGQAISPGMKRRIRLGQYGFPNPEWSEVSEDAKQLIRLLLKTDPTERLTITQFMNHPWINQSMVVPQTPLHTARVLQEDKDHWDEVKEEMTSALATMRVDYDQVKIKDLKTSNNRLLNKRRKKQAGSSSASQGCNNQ
T4 sequence (P08922 28-2347): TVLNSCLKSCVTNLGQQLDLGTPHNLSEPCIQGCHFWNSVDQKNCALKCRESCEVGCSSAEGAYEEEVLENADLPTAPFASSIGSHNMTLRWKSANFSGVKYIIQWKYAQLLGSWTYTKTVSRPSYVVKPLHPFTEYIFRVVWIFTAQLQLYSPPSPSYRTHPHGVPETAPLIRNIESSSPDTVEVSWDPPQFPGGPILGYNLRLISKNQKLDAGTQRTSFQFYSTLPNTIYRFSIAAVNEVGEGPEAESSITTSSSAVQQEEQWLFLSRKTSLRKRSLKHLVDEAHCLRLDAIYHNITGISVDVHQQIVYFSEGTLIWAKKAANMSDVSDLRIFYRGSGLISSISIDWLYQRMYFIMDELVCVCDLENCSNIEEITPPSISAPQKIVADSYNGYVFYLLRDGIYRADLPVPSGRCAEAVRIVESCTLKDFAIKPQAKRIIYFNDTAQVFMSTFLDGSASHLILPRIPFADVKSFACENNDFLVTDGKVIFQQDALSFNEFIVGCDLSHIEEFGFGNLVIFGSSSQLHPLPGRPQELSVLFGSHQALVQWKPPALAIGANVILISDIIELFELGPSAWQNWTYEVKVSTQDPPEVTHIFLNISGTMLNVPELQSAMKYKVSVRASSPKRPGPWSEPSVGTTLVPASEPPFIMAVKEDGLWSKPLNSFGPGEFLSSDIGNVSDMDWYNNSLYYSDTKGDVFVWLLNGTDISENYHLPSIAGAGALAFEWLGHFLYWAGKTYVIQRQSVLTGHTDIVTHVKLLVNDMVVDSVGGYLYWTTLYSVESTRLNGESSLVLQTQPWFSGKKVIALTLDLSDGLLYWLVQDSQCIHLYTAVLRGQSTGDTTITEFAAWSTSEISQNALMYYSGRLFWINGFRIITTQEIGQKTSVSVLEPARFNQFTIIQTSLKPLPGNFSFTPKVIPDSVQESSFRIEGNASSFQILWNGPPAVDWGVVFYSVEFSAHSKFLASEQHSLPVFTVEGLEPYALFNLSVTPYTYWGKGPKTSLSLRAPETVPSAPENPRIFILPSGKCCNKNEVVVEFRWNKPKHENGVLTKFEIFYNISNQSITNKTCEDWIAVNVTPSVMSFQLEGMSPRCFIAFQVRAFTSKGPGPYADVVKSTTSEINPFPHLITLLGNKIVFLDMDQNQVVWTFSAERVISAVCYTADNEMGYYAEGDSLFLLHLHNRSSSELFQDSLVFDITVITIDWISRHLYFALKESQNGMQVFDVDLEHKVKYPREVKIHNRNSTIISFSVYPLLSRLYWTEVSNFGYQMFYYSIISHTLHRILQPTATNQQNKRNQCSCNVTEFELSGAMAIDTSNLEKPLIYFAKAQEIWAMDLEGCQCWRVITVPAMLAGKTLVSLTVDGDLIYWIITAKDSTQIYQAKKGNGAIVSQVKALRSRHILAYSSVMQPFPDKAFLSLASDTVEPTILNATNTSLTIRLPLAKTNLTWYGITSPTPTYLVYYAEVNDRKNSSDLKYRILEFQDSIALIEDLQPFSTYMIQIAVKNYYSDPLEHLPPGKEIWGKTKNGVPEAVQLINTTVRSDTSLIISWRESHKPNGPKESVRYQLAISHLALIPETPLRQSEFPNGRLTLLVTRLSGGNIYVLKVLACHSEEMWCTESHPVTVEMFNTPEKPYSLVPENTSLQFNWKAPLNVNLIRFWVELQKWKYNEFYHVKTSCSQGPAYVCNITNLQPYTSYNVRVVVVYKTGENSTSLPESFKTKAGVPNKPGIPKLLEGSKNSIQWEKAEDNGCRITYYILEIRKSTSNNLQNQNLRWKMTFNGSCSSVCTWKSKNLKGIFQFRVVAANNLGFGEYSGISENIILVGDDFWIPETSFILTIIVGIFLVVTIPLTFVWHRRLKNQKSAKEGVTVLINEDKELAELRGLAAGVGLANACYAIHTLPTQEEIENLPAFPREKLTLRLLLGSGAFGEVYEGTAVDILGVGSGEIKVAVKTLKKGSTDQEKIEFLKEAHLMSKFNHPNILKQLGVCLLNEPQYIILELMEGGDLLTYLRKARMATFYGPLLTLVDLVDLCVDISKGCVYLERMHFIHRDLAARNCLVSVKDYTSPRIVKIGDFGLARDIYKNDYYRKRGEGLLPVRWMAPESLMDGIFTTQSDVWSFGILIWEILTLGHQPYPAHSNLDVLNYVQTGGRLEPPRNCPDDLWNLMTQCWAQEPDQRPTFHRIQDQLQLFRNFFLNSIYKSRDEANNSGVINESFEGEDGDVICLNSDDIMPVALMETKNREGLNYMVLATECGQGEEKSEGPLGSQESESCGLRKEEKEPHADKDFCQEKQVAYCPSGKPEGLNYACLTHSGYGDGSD
T3 sequence (Q76MJ5 35-926): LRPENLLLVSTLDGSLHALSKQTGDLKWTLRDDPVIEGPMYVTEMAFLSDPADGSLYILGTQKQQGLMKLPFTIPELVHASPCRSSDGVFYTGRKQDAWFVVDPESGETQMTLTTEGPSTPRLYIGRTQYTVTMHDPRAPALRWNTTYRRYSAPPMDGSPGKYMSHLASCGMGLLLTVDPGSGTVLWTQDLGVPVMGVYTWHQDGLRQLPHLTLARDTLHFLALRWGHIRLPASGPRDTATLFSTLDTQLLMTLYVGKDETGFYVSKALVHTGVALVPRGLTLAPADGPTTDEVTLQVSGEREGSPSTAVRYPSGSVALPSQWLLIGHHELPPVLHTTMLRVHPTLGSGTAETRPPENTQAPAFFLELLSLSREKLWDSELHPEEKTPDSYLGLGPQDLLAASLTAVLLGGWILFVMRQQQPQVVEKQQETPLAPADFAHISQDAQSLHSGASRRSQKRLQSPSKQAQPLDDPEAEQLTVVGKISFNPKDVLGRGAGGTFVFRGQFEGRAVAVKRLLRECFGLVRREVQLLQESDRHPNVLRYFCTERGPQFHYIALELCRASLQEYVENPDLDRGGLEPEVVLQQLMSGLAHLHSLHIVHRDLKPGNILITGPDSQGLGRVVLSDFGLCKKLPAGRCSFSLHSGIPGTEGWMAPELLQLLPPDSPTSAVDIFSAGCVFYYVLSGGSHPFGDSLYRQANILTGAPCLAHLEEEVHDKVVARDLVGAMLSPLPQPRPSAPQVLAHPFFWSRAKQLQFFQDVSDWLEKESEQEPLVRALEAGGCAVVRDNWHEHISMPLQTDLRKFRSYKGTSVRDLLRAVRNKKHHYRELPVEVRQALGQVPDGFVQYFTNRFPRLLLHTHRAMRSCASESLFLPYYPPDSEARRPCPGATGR
T1 sequence (P35968 20-1356): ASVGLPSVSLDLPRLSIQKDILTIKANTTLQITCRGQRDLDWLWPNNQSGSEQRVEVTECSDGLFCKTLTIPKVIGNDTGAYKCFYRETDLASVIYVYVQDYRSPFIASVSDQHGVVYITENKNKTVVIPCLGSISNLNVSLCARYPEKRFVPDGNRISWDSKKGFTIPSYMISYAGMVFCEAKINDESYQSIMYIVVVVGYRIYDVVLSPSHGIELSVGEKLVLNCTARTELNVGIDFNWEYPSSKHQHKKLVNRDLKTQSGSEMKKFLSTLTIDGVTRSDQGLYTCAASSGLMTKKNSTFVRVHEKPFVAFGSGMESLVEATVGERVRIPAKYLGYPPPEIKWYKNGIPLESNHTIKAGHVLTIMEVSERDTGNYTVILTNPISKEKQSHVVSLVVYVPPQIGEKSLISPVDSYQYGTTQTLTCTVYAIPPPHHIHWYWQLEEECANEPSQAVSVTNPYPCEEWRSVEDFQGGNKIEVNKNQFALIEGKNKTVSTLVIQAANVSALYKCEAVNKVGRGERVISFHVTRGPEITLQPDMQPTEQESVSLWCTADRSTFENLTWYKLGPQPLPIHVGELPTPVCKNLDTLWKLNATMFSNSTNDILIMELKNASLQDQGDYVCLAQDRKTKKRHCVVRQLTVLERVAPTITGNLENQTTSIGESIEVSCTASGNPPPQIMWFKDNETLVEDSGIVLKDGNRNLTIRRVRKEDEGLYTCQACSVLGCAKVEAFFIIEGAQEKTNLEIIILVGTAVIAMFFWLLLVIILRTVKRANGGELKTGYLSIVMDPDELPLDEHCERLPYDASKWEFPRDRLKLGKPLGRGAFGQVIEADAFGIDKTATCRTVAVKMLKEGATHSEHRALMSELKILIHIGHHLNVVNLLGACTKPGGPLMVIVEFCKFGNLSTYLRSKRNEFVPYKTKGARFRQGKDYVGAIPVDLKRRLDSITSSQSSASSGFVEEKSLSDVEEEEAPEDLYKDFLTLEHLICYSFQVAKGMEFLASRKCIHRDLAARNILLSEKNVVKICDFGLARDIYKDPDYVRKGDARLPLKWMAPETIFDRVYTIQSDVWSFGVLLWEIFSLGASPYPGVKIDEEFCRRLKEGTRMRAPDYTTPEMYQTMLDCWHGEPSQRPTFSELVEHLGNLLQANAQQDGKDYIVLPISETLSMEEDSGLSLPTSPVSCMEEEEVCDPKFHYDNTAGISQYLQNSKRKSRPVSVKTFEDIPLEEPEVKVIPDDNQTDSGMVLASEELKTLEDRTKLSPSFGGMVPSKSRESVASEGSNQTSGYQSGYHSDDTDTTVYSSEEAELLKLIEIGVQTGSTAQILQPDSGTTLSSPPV

For `O=C(Nc1cnn(-c2csc(C(=O)NC3COC3)c2)c1)Nc1ccccc1Cl` [Compound 17, 4-(4-(3-(2-chlorophenyl)ureido)-1H-pyrazol-1-yl)-N-(oxetan-3-yl)thiophene-2-carboxamide], the remaining activity at 5 µM in test [1] was 95.2%; in test [2] it was 83.5%; in test [3], 100%; in test [4], 103%; in test [5] it was 99.3%; in test [6] it was 114%. Besides, the remaining activity at 5 µM in test [7] turned out to be 99.8%; in test [8], 99.3%.

As for `O=C(Nc1cnn(-c2csc(C(=O)NC3COC3)c2)c1)Nc1c(F)cccc1Cl` [Compound 25, 4-(4-(3-(2-chloro-6-fluorophenyl)ureido)-1H-pyrazol-1-yl)-N-(oxetan-3-yl)thiophene-2-carboxamide], the remaining activity at 5 µM in test [1] came to 88.3%; in test [2], 95.6%; in test [3], 100%; in test [4], 85.5%; in test [5] it was 99%; in test [6], 90.7%. The results for the remaining activity at 5 µM in test [7] and in test [8] were 108% and 96.6%, respectively.

On to `Cc1sc(C(=O)NC2COC2)cc1-n1cc(NC(=O)Nc2c(F)cccc2Cl)cn1` [Compound 27, 4-(4-(3-(2-chloro-6-fluorophenyl)ureido)-1H-pyrazol-1-yl)-5-methyl-N-(oxetan-3-yl)thiophene-2-carboxamide], for which the remaining activity at 10 µM in test [1] (10 uM) amounted to 88.2%; in test [2] (10 uM) it was 110%; in test [3] (10 uM) it was 80.7%; in test [4] (10 uM) it was 102%; in test [5] (10 uM), 104%; in test [6] (10 uM), 93.3%. The remaining activity at 10 µM in test [7] (10 uM) is 94.5%; in test [8] (10 uM), 107%.
